In assay [1] the test system is glucose loaded normal mice. The experiment in a line: Glucose loading test on normal mice after single administration. The class given is in vivo, Kunming mice. To be noted: for Blood glucose reduction rate (%) / Blood glucose level after glucose loading: 30 nmol/kg single dose; for Blood glucose reduction rate (%): after glucose loading, versus model control group; for Blood glucose level after glucose loading: glucose 2.5 g/kg intragastric 60 min after administration, measured 30 min after loading; for Blood glucose level after glucose loading / Fasting blood glucose level: n=5; for Fasting blood glucose level: normal mice fasted 6 h, 30 nmol/kg group. In short, it runs like this:
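Male Kunming mice (20-22 g), 5 per group, fasted 6 h, received compound or semaglutide at 30 nmol/kg or saline. Glucose 2.5 g/kg given intragastrically 60 min post-dose; blood glucose measured 30 min after glucose loading.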

Another assay concerns the target T1, GCGR (Homo sapiens, UniProt P47871).
T1 construct: expressed in transfected cells
The experiment in a line: GC receptor-mediated cAMP production in vitro. The class given is cell-based. To be noted: HEK293 cell line stably expressing GCGR. In short, it runs like this: (§1)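 HEK293 cells stably expressing human GLP-1R or GCGR are stimulated with compound for 30 min in the dark in serum-free medium with 0.5 mM IBMX, with test dilutions spanning 1 μM down to 10^−3 nM. cAMP is detected after a 60 min room-temperature reaction as the 665/615 nm ratio.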

In assay [2] the test system is diet-induced obesity (DIO) mice. The experiment in a line: DIO model mice, weight after 2 weeks of administration. The class given is in vivo, C57BL/6N mice. To be noted: 30 nmol/kg s.c. once a day, 14 days. From the text:
Method: C57BL/6N mice were fed with H10060 high-fat diets to obtain diet-induced obesity (DIO) models, and mice in a control group (n=5) were fed with standard diets. One day before the first administration, the mice in the model group were randomly divided into 6 groups according to their weights (within a range of 40.5-50.5 g), i.e., a model control group, a positive control group, and test compound groups (dgc003, dgc004, dgc010, and dgc017), respectively, 5 mice in each group, which were administered once a day by subcutaneous injection. Saline was subcutaneously injected into each mouse in the blank control group and the model control group every day. The administration was performed for 14 days. The positive control drug and the test compounds were administered at a dose of 30 nmol/kg, and the administration volume for each group was 0.005 mL/g weight. The mice were weighed before each administration, and 72-h food intake was weighed every three days.

The next assay deals with T2, GLP-1R (Homo sapiens, UniProt P43220).
T2 construct: expressed in transfected cells
T2 sequence (P43220 24-463, species assumed): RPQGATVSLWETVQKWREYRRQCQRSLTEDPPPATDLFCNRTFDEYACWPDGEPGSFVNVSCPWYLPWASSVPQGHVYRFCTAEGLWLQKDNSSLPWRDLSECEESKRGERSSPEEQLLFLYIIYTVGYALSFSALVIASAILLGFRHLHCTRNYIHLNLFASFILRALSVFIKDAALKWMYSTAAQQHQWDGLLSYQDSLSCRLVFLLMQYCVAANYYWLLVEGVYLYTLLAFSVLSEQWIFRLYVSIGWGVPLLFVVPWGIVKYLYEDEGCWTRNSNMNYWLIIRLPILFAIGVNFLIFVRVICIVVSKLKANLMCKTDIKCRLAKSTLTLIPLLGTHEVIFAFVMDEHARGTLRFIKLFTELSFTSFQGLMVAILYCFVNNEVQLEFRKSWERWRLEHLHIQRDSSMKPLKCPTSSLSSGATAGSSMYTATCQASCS
In words: GLP-1 receptor-mediated cAMP production in vitro. Type of assay: cell-based. As to conditions: HEK293 cell line stably expressing GLP-1R. In short, it runs like this:
as §1

Here are results for two compounds from patent publication US20230174608A1, “Polypeptide Derivative Having Dual Receptor Agonistic Action and Use Thereof” (TIANJIN INSTITUTE OF PHARMACEUTICAL RESEARCH CO., LTD., priority 2020, published 2023).

Where a SMILES comes first, the peptide text is derived from it.

T1 sequence (P47871 26-477, species assumed): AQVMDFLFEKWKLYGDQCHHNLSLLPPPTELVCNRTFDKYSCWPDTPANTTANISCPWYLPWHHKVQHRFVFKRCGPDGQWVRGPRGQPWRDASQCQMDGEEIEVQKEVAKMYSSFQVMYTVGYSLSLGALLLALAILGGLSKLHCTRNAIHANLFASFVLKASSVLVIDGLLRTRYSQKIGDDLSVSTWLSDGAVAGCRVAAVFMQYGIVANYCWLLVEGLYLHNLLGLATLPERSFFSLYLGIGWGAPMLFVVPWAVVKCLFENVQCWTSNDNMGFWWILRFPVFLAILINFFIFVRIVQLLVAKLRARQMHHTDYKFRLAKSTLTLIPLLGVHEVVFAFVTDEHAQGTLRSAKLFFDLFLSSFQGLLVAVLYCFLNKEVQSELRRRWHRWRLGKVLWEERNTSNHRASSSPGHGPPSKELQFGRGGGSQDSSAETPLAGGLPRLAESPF

Consider `CCCCCCCCCCCCCCCC(=O)N[C@@H](CCC(=O)NCCCC[C@H](NC(=O)[C@H](C)NC(=O)[C@H](C)NC(=O)[C@H](CCCNC(=N)N)NC(=O)[C@H](CCC(=O)O)NC(=O)[C@H](CC(=O)O)NC(=O)[C@H](CC(C)C)NC(=O)[C@H](Cc1ccc(O)cc1)NC(=O)[C@H](CCCCN)NC(=O)[C@H](CO)NC(=O)[C@H](Cc1ccc(O)cc1)NC(=O)[C@H](CC(=O)O)NC(=O)[C@H](CO)NC(=O)[C@@H](NC(=O)[C@H](Cc1ccccc1)NC(=O)[C@@H](NC(=O)CNC(=O)[C@H](CCC(N)=O)NC(=O)C(C)(C)NC(=O)[C@@H](N)Cc1c[nH]cn1)[C@@H](C)O)[C@@H](C)O)C(=O)N[C@@H](CCC(=O)O)C(=O)N[C@@H](Cc1ccccc1)C(=O)N[C@H](C(=O)N[C@@H](C)C(=O)N[C@@H](Cc1c[nH]c2ccccc12)C(=O)N[C@@H](CC(C)C)C(=O)N[C@@H](CCC(=O)O)C(=O)N[C@@H](C)C(=O)NCC(=O)NCC(N)=O)[C@@H](C)CC)C(=O)O` [dgc003] (HELM PEPTIDE1{H.[Aib].Q.G.T.F.T.S.D.Y.S.K.Y.L.D.E.R.A.A.K.E.F.I.A.W.L.E.A.G.G.[am]}|PEPTIDE2{[CCCCCCCCCCCCCCCC(=O)[*:2]].[gGlu]}$PEPTIDE1,PEPTIDE2,20:R3-2:R2$$$V2.0; N-terminus assumed), for which, in assay [1], the “Blood glucose reduction rate (%)” value is 48.12%, the “Blood glucose level after glucose loading” value was 8.82 ± 1.63 mmol/L and the “Fasting blood glucose level” value is given as 4.20 ± 0.97 mmol/L. Moreover, the EC50 at GCGR came out at 1.04 nM. In addition, in assay [2], the “Weight decreasing rate by the last administration” value was determined as 16.7%. Further, at GLP-1R, the EC50 was 0.291 nM.

`CCCCCCCCCCCCCCCC(=O)N[C@@H](CCC(=O)NCCCC[C@H](NC(=O)[C@H](C)NC(=O)[C@H](C)NC(=O)[C@H](CCCNC(=N)N)NC(=O)[C@H](CCC(=O)O)NC(=O)[C@H](CCC(=O)O)NC(=O)[C@H](CC(C)C)NC(=O)[C@H](Cc1ccc(O)cc1)NC(=O)[C@H](CCCCN)NC(=O)[C@H](CO)NC(=O)[C@H](Cc1ccc(O)cc1)NC(=O)[C@H](CC(=O)O)NC(=O)[C@H](CO)NC(=O)[C@@H](NC(=O)[C@H](Cc1ccccc1)NC(=O)[C@@H](NC(=O)CNC(=O)[C@H](CCC(N)=O)NC(=O)C(C)(C)NC(=O)[C@@H](N)Cc1c[nH]cn1)[C@@H](C)O)[C@@H](C)O)C(=O)N[C@@H](CCC(=O)O)C(=O)N[C@@H](Cc1ccccc1)C(=O)N[C@H](C(=O)N[C@@H](C)C(=O)N[C@@H](Cc1c[nH]c2ccccc12)C(=O)N[C@@H](CC(C)C)C(=O)N[C@@H](CCC(=O)O)C(=O)N[C@@H](C)C(=O)NCC(=O)NCC(N)=O)[C@@H](C)CC)C(=O)O` [dgc004] (HELM PEPTIDE1{H.[Aib].Q.G.T.F.T.S.D.Y.S.K.Y.L.E.E.R.A.A.K.E.F.I.A.W.L.E.A.G.G.[am]}|PEPTIDE2{[CCCCCCCCCCCCCCCC(=O)[*:2]].[gGlu]}$PEPTIDE1,PEPTIDE2,20:R3-2:R2$$$V2.0; N-terminus assumed): in assay [1], the “Blood glucose reduction rate (%)” value is given as 50.24%, the “Blood glucose level after glucose loading” value amounted to 8.46 ± 2.28 mmol/L and the “Fasting blood glucose level” value is 3.42 ± 0.85 mmol/L. Also, the EC50 at GCGR was determined as 5.84 nM. Further, in assay [2], the “Weight decreasing rate by the last administration” value is 19.9%. Further, on GLP-1R, a half-maximal effect (EC50) was put at 0.113 nM.
